PubChem BioAssay (NCI)
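1) Cells in 96-well plates. 2) Compound, 48 h, 5 concentrations. 3) Linear interpolation between surrounding doses. 4) Unreached endpoint = highest concentration. Definition used: TGI = concentration required for complete inhibition of growth.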

Legend:
Test in all cases: NCI-60 cell line screen, 48 h
HT29 colon = system: HT29 colon
OVCAR-3 ovarian = system: OVCAR-3 ovarian
NCI-H522 lung = system: NCI-H522 lung
A549 NSCLC = system: A549 NSCLC
LOX IMVI melanoma = system: LOX IMVI melanoma
MDA-N = system: MDA-N
DU-145 prostate = system: DU-145 prostate
MDA-MB-435 = system: MDA-MB-435
HOP-62 NSCLC = system: HOP-62 NSCLC
MOLT-4 leukemia = system: MOLT-4 leukemia
NCI-H460 lung = system: NCI-H460 lung
SW-620 colon = system: SW-620 colon
SF-295 CNS = system: SF-295 CNS
OVCAR-8 ovarian = system: OVCAR-8 ovarian
OVCAR-5 ovarian = system: OVCAR-5 ovarian
MALME-3M melanoma = system: MALME-3M melanoma
SR leukemia = system: SR leukemia

SMILES | TGI (HT29 colon) [µM] | TGI (OVCAR-3 ovarian) [µM] | TGI (NCI-H522 lung) [µM] | TGI (A549 NSCLC) [µM] | TGI (LOX IMVI melanoma) [µM] | TGI (MDA-N) [µM] | TGI (DU-145 prostate) [µM] | TGI (MDA-MB-435) [µM] | TGI (HOP-62 NSCLC) [µM] | TGI (MOLT-4 leukemia) [µM] | TGI (NCI-H460 lung) [µM] | TGI (SW-620 colon) [µM] | TGI (SF-295 CNS) [µM] | TGI (OVCAR-8 ovarian) [µM] | TGI (OVCAR-5 ovarian) [µM] | TGI (MALME-3M melanoma) [µM] | TGI (SR leukemia) [µM]
C#CCn1c(=O)c(I)cn(/C(=C/C(=O)OCC)C(=O)OCC)c1=O | 36.9 | 3.37 | 2.37 | 36 | > 48.5 | 9.41 | 23.9 | 19.8 | 32.9 | 1.9 | 49.8 | 4 | > 59.2 | 19.1 | 31.1 | 4.27 | –
COc1ccc2c(c1)CN1C(=N2)CSC1c1cccc(Br)c1 (configuration not stated) | 72.3 | – | > 100 | > 100 | > 100 | > 100 | – | > 100 | > 100 | 63.2 | > 100 | > 100 | > 100 | > 100 | > 100 | > 100 | > 100
OC(CNc1ccccn1)c1ccccc1 (configuration not stated) | > 100 | > 100 | > 100 | > 100 | > 100 | > 100 | > 100 | > 100 | > 100 | > 100 | > 100 | > 100 | > 100 | > 100 | > 100 | > 100 | –
C=CC[C@]1(/C=N/O)CN(S(=O)(=O)CC[Si](C)(C)C)C[C@H]2CC=CC[C@H]21 | 30.8 | – | 38 | 30.7 | 40.4 | 42.8 | 46.9 | > 100 | 39 | 52.2 | 38.5 | 34.7 | 31 | 67.3 | 44.2 | 40.4 | –
CC1(c2cccc(C3CC4(CCC3=O)OCCCCO4)c2)OCCO1 (configuration not stated) | > 100 | > 100 | > 100 | > 100 | > 100 | – | – | – | > 100 | > 100 | > 100 | > 100 | > 100 | > 100 | > 100 | > 100 | –
O=[N+]([O-])c1ccc(CSc2nncc3[nH]cnc23)cc1 | > 100 | > 100 | > 100 | > 100 | > 100 | > 100 | – | > 100 | > 100 | > 100 | – | > 100 | > 100 | > 100 | > 100 | > 100 | > 100
CCCCC1(NN=C2CCCCC2)C(=O)N(c2ccccc2)N(c2ccccc2)C1=O | > 100 | > 100 | > 100 | > 100 | – | > 100 | > 100 | > 100 | > 100 | 66 | > 100 | > 100 | > 100 | > 100 | – | – | 32.2
CCOC1C(Br)Cn2c(=O)c3cc4ccccc4cc3c(=O)n2C1C (configuration not stated) | > 100 | > 100 | – | > 100 | > 100 | – | – | – | > 100 | 94 | > 100 | > 100 | > 100 | > 100 | > 100 | > 100 | > 100
O=S(=O)(O)c1ccc(N=Nc2ccc3c(S(=O)(=O)O)cccc3c2O)c2ccccc12 | > 100 | > 100 | > 100 | > 100 | > 100 | > 100 | > 100 | > 100 | > 100 | – | – | > 100 | > 100 | > 100 | > 100 | > 100 | –
O=C1NC(=S)N/C1=C\c1cccs1 | > 100 | > 100 | > 100 | > 100 | > 100 | > 100 | > 100 | > 100 | > 100 | > 100 | – | > 100 | > 100 | > 100 | > 100 | > 100 | –
CCN1C[C@]2(C)CC[C@H](O)C34C1C(C[C@@H]32)[C@@]1(O)CC[C@H]2C[C@@H]4[C@@H]1[C@H]2O | > 100 | > 100 | > 100 | > 100 | > 100 | – | – | – | > 100 | > 100 | > 100 | > 100 | > 100 | > 100 | > 100 | > 100 | > 100
COc1cc(C=O)c(-c2c(C=O)ccc3c2OCO3)c(OC)c1OC | > 100 | > 100 | > 100 | > 100 | > 100 | – | – | – | > 100 | > 100 | > 100 | > 100 | > 100 | > 100 | > 100 | > 100 | > 100
COc1ccc(-c2c(C(C)=O)c(-c3ccccc3)n(C3OC(CO)C(O)C(O)C3O)c(=S)c2C#N)cc1 (configuration not stated) | > 100 | > 100 | > 100 | > 100 | > 100 | > 100 | > 100 | > 100 | > 100 | > 100 | > 100 | > 100 | > 100 | > 100 | > 100 | > 100 | –
O=C(NN1C(=O)C(Cl)C1c1ccc(Cl)cc1)c1c(Cl)c(Cl)c(Cl)c(Cl)c1-c1nc2ccccc2[nH]1 (configuration not stated) | 75.8 | > 100 | 39.7 | > 100 | 32.5 | – | 42.6 | 80.5 | > 100 | > 100 | 46.4 | > 100 | > 100 | 43.7 | > 100 | 63.4 | > 100
C=C(C)C1CCC(C(=O)O)CC1 (configuration not stated) | > 100 | > 100 | > 100 | > 100 | > 100 | > 100 | > 100 | > 100 | > 100 | > 100 | > 100 | > 100 | > 100 | > 100 | > 100 | > 100 | –
